Experimental data: a compilation of properties of binary mixtures (doi:10.1007/s10953-006-9073-6)

Assay: xn = mol fraction of the nth substance listed
Conditions: 298.15 K, 101 kPa

speed of sound (x2 = 0.1874) [m/s] | speed of sound (x2 = 0.4815) [m/s] | speed of sound (x2 = 0.6209) [m/s] | speed of sound (x2 = 0.7217) [m/s] | speed of sound (x2 = 0.8982) [m/s] | speed of sound (x2 = 0.9373) [m/s] | speed of sound (x2 = 0.2213) [m/s] | speed of sound (x2 = 0.308) [m/s] | speed of sound (x2 = 0.3852) [m/s] | speed of sound (x2 = 0.5017) [m/s] | speed of sound (x2 = 0.5976) [m/s] | speed of sound (x2 = 0.6987) [m/s] | speed of sound (x2 = 0.8012) [m/s] | speed of sound (x2 = 0.8967) [m/s] | speed of sound (x2 = 0.9504) [m/s] | Structure (SMILES)
1744.8 | 1598.2 | 1515 | 1443 | 1279.1 | 1232.5 | – | – | – | – | – | – | – | – | – | CCCC[n+]1ccn(C)c1.[Cl-] + CCO
– | – | – | – | – | – | 1838.3 | 1828.2 | 1831.3 | 1845 | 1859.6 | 1872.8 | 1881.5 | 1853.7 | 1754.7 | CCCC[n+]1ccn(C)c1.[Cl-] + O
